Active and inactive are the calls of the source.

Assay [1] can be described thus: A Cell Based Secondary Assay To Explore Cytotoxicity of Compounds that Sensitize Mycobacterium Tuberculosis to Beta-Lactam Antibiotics. Format: functional.
The nature of assay [2]: inhibitors of intracellular T. cruzi replication, confirmation, NIH3T3 host cells, beta-gal luminescence (AID 2044).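 Note: intracellular parasites grown in NIH/3T3 mouse fibroblasts as host cells; luminescent beta-galactosidase reporter signal from transgenic T. cruzi replicating inside host cells; inhibitors lower the luminescence signal.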 It counts as functional, cell-based.
In assay [3] the target is T1, Acyl-homoserine lactone acylase PvdQ (Pseudomonas aeruginosa (strain LESB58), UniProt Q9I194).
T1 sequence (Q9I194 whole entry): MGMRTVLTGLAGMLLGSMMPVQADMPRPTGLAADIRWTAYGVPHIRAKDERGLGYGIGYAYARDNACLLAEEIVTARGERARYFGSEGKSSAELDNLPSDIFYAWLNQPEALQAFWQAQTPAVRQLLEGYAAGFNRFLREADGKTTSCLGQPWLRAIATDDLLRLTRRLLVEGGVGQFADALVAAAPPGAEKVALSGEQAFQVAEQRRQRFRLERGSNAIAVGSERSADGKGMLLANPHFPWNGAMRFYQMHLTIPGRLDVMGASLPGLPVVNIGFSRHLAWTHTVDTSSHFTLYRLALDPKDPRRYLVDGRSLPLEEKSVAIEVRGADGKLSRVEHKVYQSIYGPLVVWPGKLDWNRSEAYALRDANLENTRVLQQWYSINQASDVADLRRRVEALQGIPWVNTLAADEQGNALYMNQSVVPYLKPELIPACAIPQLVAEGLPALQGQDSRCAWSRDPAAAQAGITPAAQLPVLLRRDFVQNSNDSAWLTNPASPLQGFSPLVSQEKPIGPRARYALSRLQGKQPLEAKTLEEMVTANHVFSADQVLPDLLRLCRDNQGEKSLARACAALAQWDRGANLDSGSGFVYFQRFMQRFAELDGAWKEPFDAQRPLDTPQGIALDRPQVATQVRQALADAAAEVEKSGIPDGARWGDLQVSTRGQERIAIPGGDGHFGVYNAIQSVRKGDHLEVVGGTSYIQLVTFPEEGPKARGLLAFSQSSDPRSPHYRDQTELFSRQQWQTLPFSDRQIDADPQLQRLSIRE
The assay is described as follows: P. aeruginosa PvdQ acylase inhibitors, dose response, biochemical, fluorescence, plate reader and imaging, cherry-picks (AID 493231).

A further assay deals with HEK293. The assay is described as follows: inhibitors of LMP1-driven NF-kB reporter, dose response, cell-based, HEK293, luciferase, cherry-pick (AID 588343). Format: functional. As to conditions: Homo sapiens.
The nature of assay [4]: cytotoxicity toward NIH3T3 fibroblasts, dose response, counter-screen, cell-based, ATP luminescence, mouse fibroblasts (AID 2010).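 Note: cells exposed to compound for about 90 hours before reading.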 Format: functional. For orientation: Counterscreens check selectivity or assay interference.
A further assay deals with T2, Aminopeptidase N (Plasmodium falciparum FcB1/Columbia, UniProt O96935).
T2 sequence (O96935 whole entry): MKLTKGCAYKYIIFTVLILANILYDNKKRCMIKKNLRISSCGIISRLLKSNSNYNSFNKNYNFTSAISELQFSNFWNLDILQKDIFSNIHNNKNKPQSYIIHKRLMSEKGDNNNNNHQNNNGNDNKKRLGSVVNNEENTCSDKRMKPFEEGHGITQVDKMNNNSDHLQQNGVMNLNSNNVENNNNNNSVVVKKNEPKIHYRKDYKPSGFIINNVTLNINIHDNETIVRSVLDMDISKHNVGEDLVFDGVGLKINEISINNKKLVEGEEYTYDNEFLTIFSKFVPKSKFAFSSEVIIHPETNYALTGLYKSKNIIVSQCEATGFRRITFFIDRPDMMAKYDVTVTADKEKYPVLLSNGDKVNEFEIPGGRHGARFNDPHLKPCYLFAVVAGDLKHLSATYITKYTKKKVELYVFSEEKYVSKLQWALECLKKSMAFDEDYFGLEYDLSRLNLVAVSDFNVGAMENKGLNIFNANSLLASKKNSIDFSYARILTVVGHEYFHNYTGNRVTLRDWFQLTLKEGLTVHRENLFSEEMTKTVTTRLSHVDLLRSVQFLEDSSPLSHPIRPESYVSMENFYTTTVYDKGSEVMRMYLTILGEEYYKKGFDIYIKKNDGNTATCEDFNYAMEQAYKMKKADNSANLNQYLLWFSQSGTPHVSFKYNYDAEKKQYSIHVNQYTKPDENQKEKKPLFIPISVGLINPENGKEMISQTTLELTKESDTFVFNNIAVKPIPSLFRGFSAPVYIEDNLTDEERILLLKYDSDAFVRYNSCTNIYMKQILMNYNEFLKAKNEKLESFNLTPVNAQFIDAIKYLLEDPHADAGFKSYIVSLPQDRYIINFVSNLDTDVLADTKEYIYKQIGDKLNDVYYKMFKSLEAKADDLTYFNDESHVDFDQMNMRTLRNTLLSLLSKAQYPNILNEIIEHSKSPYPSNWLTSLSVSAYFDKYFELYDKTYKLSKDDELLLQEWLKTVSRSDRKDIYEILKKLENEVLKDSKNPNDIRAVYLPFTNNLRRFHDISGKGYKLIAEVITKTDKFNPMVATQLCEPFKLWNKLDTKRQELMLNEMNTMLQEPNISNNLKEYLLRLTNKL
As to the kind of experiment: P. falciparum M1AAP inhibitors, biochemical, fluorogenic H-Leu-NHMec substrate, 1536-well (AID 1445). Set-up: species or system Plasmodium falciparum 3D7, 3D7.

Assay [5] concerns the target T3, Oxysterols receptor LXR-beta (Homo sapiens, UniProt P55055).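 Note: Cell-based luminescence dose-response assay of agonist activity at LXR, run as a confirmatory counterscreen to a daf-12 agonist screen; HEK293 cells with Gal4-LXR fusion and GAL4-driven luciferase reporter; agonist potency from rising luciferase signal of a Gal4-LXR reporter.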
T3 sequence (P55055 whole entry): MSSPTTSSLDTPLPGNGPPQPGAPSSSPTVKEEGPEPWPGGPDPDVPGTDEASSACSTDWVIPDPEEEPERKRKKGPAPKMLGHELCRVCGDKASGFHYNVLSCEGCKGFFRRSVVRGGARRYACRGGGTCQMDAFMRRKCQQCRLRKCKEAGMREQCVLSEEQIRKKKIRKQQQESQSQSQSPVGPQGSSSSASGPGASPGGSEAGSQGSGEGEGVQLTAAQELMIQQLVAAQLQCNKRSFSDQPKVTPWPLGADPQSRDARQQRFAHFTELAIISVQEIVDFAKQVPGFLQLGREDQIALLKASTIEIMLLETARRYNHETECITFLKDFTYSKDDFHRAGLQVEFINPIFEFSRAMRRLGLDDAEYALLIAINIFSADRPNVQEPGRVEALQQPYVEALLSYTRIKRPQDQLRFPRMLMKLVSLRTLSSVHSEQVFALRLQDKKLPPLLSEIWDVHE
Format: functional, cell-based.

The next assay concerns the target Paired box protein Pax-8 (Homo sapiens, UniProt Q06710). The assay is described as follows: inhibitors of PAX8-driven TPO luciferase reporter, dose response, RMG-I cells, cherry-pick (AID 687027).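 Note: luciferase reporter driven by Pax8 target thyroperoxidase promoter measured by SteadyGlo luminescence.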 Format: functional, cell-based. On the technique in general: Reporter assays use an easily measured gene product as a stand-in for the process of interest.
A short description of assay [6]: cytotoxicity in OVCAR8 ovarian cancer cells, dose response, PAX8 project, cell-based, plate reader, dry powder samples (AID 743197). The note with it: OVCAR-8. Format: functional.
The target of assay [7] is T4, Rac GTPase-activating protein 1 (Homo sapiens, UniProt Q9H0H5).
T4 sequence (Q9H0H5 whole entry): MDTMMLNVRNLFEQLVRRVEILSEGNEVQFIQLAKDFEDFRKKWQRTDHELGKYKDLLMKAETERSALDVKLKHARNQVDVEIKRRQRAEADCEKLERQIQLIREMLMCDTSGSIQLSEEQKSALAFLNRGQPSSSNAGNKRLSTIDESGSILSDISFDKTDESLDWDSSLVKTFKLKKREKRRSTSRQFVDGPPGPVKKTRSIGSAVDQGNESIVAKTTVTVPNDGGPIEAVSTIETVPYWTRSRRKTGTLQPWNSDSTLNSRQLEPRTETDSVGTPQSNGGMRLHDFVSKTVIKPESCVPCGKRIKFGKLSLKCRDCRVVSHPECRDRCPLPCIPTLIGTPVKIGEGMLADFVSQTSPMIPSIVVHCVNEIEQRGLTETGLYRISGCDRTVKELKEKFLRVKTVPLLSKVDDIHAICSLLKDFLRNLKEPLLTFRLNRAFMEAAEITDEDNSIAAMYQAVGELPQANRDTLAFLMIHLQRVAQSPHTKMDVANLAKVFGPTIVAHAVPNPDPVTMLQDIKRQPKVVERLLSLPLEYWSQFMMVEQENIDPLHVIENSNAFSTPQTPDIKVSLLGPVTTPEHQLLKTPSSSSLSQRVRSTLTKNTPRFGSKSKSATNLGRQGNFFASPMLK
As to the kind of experiment: MgcRacGAP GTPase-activating activity inhibitors, confirmation, biochemical, ADP Hunter fluorescence, primary and confirmatory (AID 624330). Format: functional.

In another assay the target is Large T antigen (Simian virus 40, UniProt P03070). Format: functional, Betapolyomavirus macacae.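 Note: Confirmatory-stage PubChem screen for compounds that inhibit SV40 T antigen.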
The target of a further assay is T5, Leucine aminopeptidase (Plasmodium falciparum 3D7, UniProt Q8IL11).
T5 sequence (Q8IL11 whole entry): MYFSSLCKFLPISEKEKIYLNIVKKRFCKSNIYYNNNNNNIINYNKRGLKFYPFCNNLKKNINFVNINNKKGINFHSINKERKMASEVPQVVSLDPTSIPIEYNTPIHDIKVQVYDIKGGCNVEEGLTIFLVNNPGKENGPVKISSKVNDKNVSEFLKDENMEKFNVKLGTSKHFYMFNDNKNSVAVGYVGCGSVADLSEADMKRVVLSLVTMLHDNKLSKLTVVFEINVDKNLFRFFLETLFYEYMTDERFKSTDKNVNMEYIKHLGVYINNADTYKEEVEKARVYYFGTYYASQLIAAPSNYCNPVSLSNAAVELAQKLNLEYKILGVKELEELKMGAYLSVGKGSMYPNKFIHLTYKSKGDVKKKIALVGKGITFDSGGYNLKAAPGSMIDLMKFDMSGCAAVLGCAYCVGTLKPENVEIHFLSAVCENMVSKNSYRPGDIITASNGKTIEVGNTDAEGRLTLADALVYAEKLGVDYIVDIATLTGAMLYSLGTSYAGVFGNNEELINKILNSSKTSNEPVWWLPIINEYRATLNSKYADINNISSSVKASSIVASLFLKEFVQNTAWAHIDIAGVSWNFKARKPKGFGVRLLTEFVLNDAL
The assay is described as follows: P. falciparum M17LAP inhibitors, primary screen, biochemical, fluorogenic H-Leu-NHMec substrate, 1536-well (AID 1619). It counts as functional.

Assay [8] is described as follows: ZM109 Env clade C HIV-1 fusion inhibitors, dose response, HeLa effector, CEM target cells, luciferase, cherry-pick (AID 652058). It counts as functional, cell-based.
A short description of assay [9]: off-target signal loss in HeLa-CEM21 co-culture – HeLa F-luc CTL cells, cherry-picked, counter-screen for HIV-1 Env fusion inhibitor project, dose response (AID 652040).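 Note: potency for signal decrease marking cytotoxic or nonspecific inhibition.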 Format: functional, cell-based.
The nature of assay [10]: inhibitors of HIV Env-driven cell fusion, dose response, cherry-pick (AID 652057). Format: functional, cell-based.
Assay [11] is described as follows: inhibitors of clade B AD8 Env fusion, dose response, cell-based, cherry-pick (AID 652062).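 Note: luciferase signal from cell-cell fusion driven by HIV-1 clade B AD8 Env; potency is for inhibitors of fusion seen as a drop in luminescence.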 It counts as functional.

Chain of Paired box protein Pax-8 (Q06710 whole entry): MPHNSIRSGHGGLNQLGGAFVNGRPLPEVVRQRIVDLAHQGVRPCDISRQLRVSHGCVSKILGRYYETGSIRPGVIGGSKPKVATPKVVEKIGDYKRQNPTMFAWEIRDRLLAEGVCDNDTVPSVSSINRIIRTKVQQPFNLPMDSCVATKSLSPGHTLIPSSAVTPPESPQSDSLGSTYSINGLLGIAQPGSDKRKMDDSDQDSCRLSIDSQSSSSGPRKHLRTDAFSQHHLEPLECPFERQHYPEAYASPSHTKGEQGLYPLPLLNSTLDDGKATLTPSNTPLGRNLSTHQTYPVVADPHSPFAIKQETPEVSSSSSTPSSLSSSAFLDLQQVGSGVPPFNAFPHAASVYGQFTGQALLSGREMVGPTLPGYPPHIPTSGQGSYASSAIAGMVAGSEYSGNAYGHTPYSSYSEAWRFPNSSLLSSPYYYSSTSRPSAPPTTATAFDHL
Chain of Large T antigen (P03070 whole entry): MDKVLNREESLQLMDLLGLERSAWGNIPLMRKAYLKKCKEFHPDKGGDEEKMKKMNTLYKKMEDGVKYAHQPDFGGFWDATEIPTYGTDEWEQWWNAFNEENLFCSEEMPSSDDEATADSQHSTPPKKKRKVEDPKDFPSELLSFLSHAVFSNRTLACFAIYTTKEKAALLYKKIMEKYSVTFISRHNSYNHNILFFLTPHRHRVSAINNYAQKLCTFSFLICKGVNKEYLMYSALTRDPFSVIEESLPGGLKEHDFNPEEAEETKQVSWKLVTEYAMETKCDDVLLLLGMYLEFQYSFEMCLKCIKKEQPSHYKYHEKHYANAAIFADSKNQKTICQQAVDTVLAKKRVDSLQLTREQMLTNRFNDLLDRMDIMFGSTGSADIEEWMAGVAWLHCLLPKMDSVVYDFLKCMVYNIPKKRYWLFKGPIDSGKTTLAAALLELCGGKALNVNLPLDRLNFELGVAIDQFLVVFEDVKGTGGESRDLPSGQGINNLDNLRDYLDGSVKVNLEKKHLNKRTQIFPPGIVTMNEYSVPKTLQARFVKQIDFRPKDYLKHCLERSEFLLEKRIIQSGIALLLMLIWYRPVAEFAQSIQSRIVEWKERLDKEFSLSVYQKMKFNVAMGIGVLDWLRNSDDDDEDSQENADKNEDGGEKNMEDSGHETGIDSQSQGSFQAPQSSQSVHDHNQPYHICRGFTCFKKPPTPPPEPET

`COc1ccc(Cn2c(C)nc3c(c(=O)c4ccccc4n3C)c2=O)cc1`: in assay [1], the CC50 is > 40 µM (active).

Regarding `CCOc1ccc(Nc2ncnc3ccc([N+](=O)[O-])cc23)cc1`, the half-maximal effective concentration (EC50) in [2] is 2.22 µM (active); in [4], > 60 µM (not active). Besides, the AC50 was 30.8 µM (active) in [3] and 8.95 µM (active) with HEK293.

With `Cn1nc(-c2ccc(OCC(=O)NCC3CCCO3)cc2)c2ccccc2c1=O` (stereo not drawn), the cytotoxic concentration (CC50) in assay [1] is > 40 µM (active).

Turning to `CCOC(=O)N1CCN(C(=O)c2ccc3c(c2)sc2nc(-c4ccccc4)cn23)CC1`, the half-maximal inhibitory concentration (IC50) at Aminopeptidase N was 73.4 µM (active).

As to `O=[N+]([O-])c1ccc(-c2cccnc2)cc1`, in [3], the AC50 is 13.1 µM (active).

As for `C/C(=N\Nc1nc2ccccc2s1)c1cccs1`, the EC50 (in [5]; in the assay “cells”) was > 67.5 µM (inactive) in each case.

With `COCc1cc(O)n2ncc(-c3ccccc3)c2n1`, the CC50 in assay [1] is > 40 µM (active).

For the compound `O=C(/C=C/c1ccc2c(c1)OCCO2)c1ccccc1`, in assay [3], the AC50 is 29.3 µM (active).

As to `C=CCOC(=O)c1ccc(-n2cnc(C)n2)nc1`, the AC50 in assay [3] is 4.58 µM (active).

As to `O=C(COc1ccccc1Cl)Nc1ccc(Cl)cn1`, the EC50 (in assay [5]; in the assay “cells”) was > 67.5 µM (inactive) in each case.

In the case of `C[C@@H]1CCCCO[C@H](CN(C)Cc2ccc3c(c2)OCO3)[C@@H](C)CN([C@@H](C)CO)C(=O)c2cc(NS(=O)(=O)c3ccc(Cl)cc3)ccc2O1`, the half-maximal activity concentration (AC50) on Paired box protein Pax-8 was 9.45 µM (active); in [6] it was > 70 µM (inactive).

Turning to `Cc1ccc(NC(=O)Nc2cccs2)nc1`, the IC50 on Aminopeptidase N is 26.4 µM (active).

On to `COc1ccc2c(c1)c(C(=O)N/N=C/c1ccc(O)c(O)c1)c(C)n2C`, for which the IC50 is 23.5 µM (active) in [7], 16.7 µM (active) at Large T antigen and 29.7 µM (active) at Leucine aminopeptidase.

Turning to `COc1ccccc1[C@@H]1C(c2ccc(F)cc2)=NN(c2ccccc2)[C@H]1C(=O)N1CCOC1=O`, the AC50 was 7.77 µM (active) in assay [8], 7.61 µM (active) in assay [9], 3.59 µM (active) in assay [10] and 12.6 µM (active) in assay [11].

Regarding `O=C(/C=C/c1cccc([N+](=O)[O-])c1)N1CCN(Cc2ccc3c(c2)OCO3)CC1`, the concentration for half-maximal inhibition (IC50) on Aminopeptidase N is 108 µM (active).

With `C[C@H](CO)N1C[C@H](C)[C@H](CN(C)Cc2ccc(-c3ccccc3)cc2)Oc2ccc(NS(=O)(=O)c3ccc(F)cc3)cc2CC1=O`, the concentration at half-maximal activity (AC50) on Paired box protein Pax-8 was 27.1 µM (active); in [6], > 70 µM (inactive).

For orientation: CC50 means the concentration that lowers cell viability or growth by half. For orientation: EC50 means the concentration that produces a half-maximal response. Usually AC50 stands for the midpoint of the concentration-response curve, whichever way the signal moves. The IC50 is the concentration that inhibits the measured activity by half.
